Measured values taken from the supplement of paper PMC10307832.

How the values were obtained:
Experiment in all cases: relative viability (nuclei count vs DMSO), 5 days (fraction); higher = more cells survive
[1] = compound: C1=CC2=C(C=C(C(=C2N=C1)O)N=NC3=CC4=C(C=C3)C=C(C=C4)S(=O)(=O)O)S(=O)(=O)O + COc1cccc2cc(-c3nc([C@H]4CC[C@H](C(=O)O)CC4)n4ncnc(N)c34)[nH]c12 [OSI-027] (partner 0.5 µM)
Outline: (§1)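 Dosing by pin tool came one day after lung cancer cell lines were seeded in 1536-well plates, using either one drug or a fixed anchor-drug dose plus five library-drug doses (not always all listed) in √10 steps. After 5 days, nuclei were counted on 4× images. Relative viability is treated-well nuclei count divided by vehicle-well nuclei count, and values are medians of duplicate plates.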

[2] = compound: C1=CC2=C(C=C(C(=C2N=C1)O)N=NC3=CC4=C(C=C3)C=C(C=C4)S(=O)(=O)O)S(=O)(=O)O + C[C@@H](Oc1cc(-c2cnn(C3CCNCC3)c2)cnc1N)c1c(Cl)ccc(F)c1Cl [Crizotinib] (partner 1 µM)
Outline: as §1

[3] = compound: O=C(NC1CCNCC1)c1n[nH]cc1NC(=O)c1c(Cl)cccc1Cl [AT-7519] + COc1cccc2cc(-c3nc([C@H]4CC[C@H](C(=O)O)CC4)n4ncnc(N)c34)[nH]c12 [OSI-027] (partner 0.5 µM)
Outline: as §1

[4] = compound: C1=CC2=C(C=C(C(=C2N=C1)O)N=NC3=CC4=C(C=C3)C=C(C=C4)S(=O)(=O)O)S(=O)(=O)O + Nc1ncn([C@H]2C[C@H](O)[C@@H](CO)O2)c(=O)n1 [Decitabine] (partner 2 µM)
Outline: as §1

Row | Cell Line | relative viability ([1]; first compound 0.08 µM) | relative viability ([1]; first compound 0.253 µM) | relative viability ([1]; first compound 0.8 µM) | relative viability ([1]; first compound 2.53 µM) | relative viability ([1]; first compound 8 µM) | relative viability ([2]; first compound 0.08 µM) | relative viability ([2]; first compound 0.253 µM) | relative viability ([2]; first compound 0.8 µM) | relative viability ([2]; first compound 2.53 µM) | relative viability ([2]; first compound 8 µM) | relative viability ([3]; first compound 0.01 µM) | relative viability ([3]; first compound 0.03162 µM) | relative viability ([3]; first compound 0.3162 µM) | relative viability ([3]; first compound 1 µM) | relative viability ([4]; first compound 0.08 µM) | relative viability ([4]; first compound 0.253 µM) | relative viability ([4]; first compound 0.8 µM) | relative viability ([4]; first compound 2.53 µM) | relative viability ([4]; first compound 8 µM)
1 | NCI-H2087 | 0.563 | 0.536 | 0.477 | 0.61 | 0.682 | 1.04 | 0.952 | 0.957 | 0.694 | 0.833 | 0.729 | 0.649 | 0.493 | 0.151 | 0.244 | 0.259 | 0.222 | 0.131 | 0.24
2 | LC-2-ad | 0.936 | 0.855 | 0.626 | 0.906 | 0.723 | 0.534 | 0.412 | 0.462 | 0.452 | 0.411 | 0.733 | 0.866 | 0.862 | 0.514 | 0.909 | 0.744 | 0.834 | 0.808 | 0.812
3 | NCI-H1915 | 0.59 | 0.667 | 0.649 | 0.634 | 0.628 | 0.973 | 0.864 | 0.893 | 0.912 | 0.925 | 0.406 | 0.598 | 0.521 | 0.394 | 0.25 | 0.25 | 0.268 | 0.263 | 0.274
4 | NCI-H2023 | 0.434 | 0.431 | 0.454 | 0.367 | 0.552 | 0.831 | 0.702 | 0.654 | 0.726 | 0.483 | 0.435 | 0.347 | 0.351 | 0.203 | 0.24 | 0.243 | 0.258 | 0.24 | 0.19
5 | COR-L 105 | 0.657 | 0.576 | 0.788 | 0.635 | 0.722 | 0.999 | 0.71 | 0.797 | 0.881 | 0.717 | 0.6 | 0.58 | 0.674 | 0.401 | 0.711 | 0.705 | 0.65 | 0.647 | 0.567
6 | RERF-LC-KJ | 0.664 | 0.624 | 0.593 | 0.608 | 0.588 | 0.828 | 0.797 | 0.782 | 0.872 | 0.869 | 0.572 | 0.53 | 0.54 | 0.25 | 0.654 | 0.684 | 0.637 | 0.761 | 0.631
7 | LXF-289 | 0.84 | 0.733 | 0.745 | 0.809 | 0.788 | 0.886 | 0.762 | 0.792 | 0.835 | 0.741 | 0.758 | 0.666 | 0.706 | 0.737 | 0.412 | 0.383 | 0.395 | 0.371 | 0.31
8 | PC-14 | 1.16 | 0.861 | 0.819 | 0.833 | 0.837 | 0.944 | 0.833 | 0.907 | 0.892 | 0.941 | 0.725 | 0.701 | 0.691 | 0.125 | 0.184 | 0.229 | 0.217 | 0.266 | 0.217
9 | NCI-H650 | 0.546 | 0.511 | 0.499 | 0.494 | 0.293 | 0.738 | 0.79 | 0.764 | 0.712 | 0.818 | 0.529 | 0.496 | 0.498 | 0.711 | 0.324 | 0.354 | 0.329 | 0.317 | 0.31
10 | NCI-H1666 | 0.897 | 0.838 | 0.793 | 0.827 | 0.847 | 1.22 | 0.949 | 0.95 | 1.06 | 0.946 | 0.825 | 0.82 | 0.838 | 0.652 | 0.821 | 0.711 | 0.716 | 0.815 | 0.747
11 | NCI-H2085 | 0.901 | 0.716 | 0.716 | 0.974 | 0.842 | 0.956 | 0.891 | 0.855 | 0.85 | 0.725 | 0.739 | 0.662 | 0.626 | 0.651 | 0.561 | 0.53 | 0.496 | 0.631 | 0.546
12 | NCI-H1734 | 0.632 | 0.602 | 0.573 | 0.586 | 0.349 | 0.733 | 0.66 | 0.724 | 0.64 | 0.662 | 0.521 | 0.543 | 0.445 | 0.397 | 0.493 | 0.439 | 0.461 | 0.488 | 0.503
13 | NCI-H2126 | 0.723 | 0.662 | 0.588 | 0.658 | 0.632 | 1.09 | 0.937 | 0.993 | 1.03 | 1.01 | 0.668 | 0.665 | 0.575 | 0.688 | 0.577 | 0.567 | 0.599 | 0.612 | 0.609
14 | EMC-BAC-2 | 0.408 | 0.397 | 0.386 | 0.363 | 0.343 | 0.777 | 0.751 | 0.704 | 0.806 | 0.757 | 0.363 | 0.343 | 0.358 | 0.476 | 1.03 | 0.991 | 0.953 | 1.05 | 0.98
15 | NCI-H1993 | 0.553 | 0.547 | 0.556 | 0.601 | 0.584 | 0.866 | 0.904 | 0.864 | 0.797 | 0.896 | 0.569 | 0.494 | 0.49 | 0.563 | 0.573 | 0.669 | 0.624 | 0.59 | 0.634
16 | NCI-H520 | 0.215 | 0.219 | 0.201 | 0.274 | 0.22 | 0.973 | 0.808 | 0.802 | 0.692 | 0.869 | 0.254 | 0.285 | 0.26 | 0.241 | 0.525 | 0.519 | 0.542 | 0.468 | 0.508
17 | NCI-H647 | 0.68 | 0.636 | 0.603 | 0.75 | 0.73 | 1.36 | 0.865 | 1.05 | 1.08 | 0.962 | 0.538 | 0.675 | 0.676 | 0.471 | 0.35 | 0.412 | 0.415 | 0.45 | 0.401
18 | NCI-H1792 | 0.866 | 0.669 | 0.726 | 0.689 | 0.629 | 1.15 | 0.947 | 0.933 | 1.02 | 0.961 |  |  | 0.869 | 0.791 | 0.627 | 0.483 | 0.508 | 0.5 | 0.473
19 | SK-LU-1 | 0.424 | 0.366 | 0.38 | 0.338 | 0.354 | 1 | 0.952 | 0.854 | 0.923 | 0.93 | 0.356 | 0.315 | 0.282 | 0.168 | 0.795 | 0.679 | 0.664 | 0.616 | 0.655
20 | ChaGo-K-1 | 0.641 | 0.555 | 0.519 | 0.556 | 0.382 | 1.12 | 1.16 | 1.13 | 1.21 | 1.12 | 0.642 | 0.556 | 0.457 | 0.447 | 0.54 | 0.534 | 0.532 | 0.439 | 0.528
21 | NCI-H1650 | 0.718 | 0.542 | 0.667 | 0.651 | 0.65 | 1.05 | 0.894 | 0.962 | 1.15 | 1.01 | 0.779 | 0.598 | 0.46 | 0.181 | 0.438 | 0.37 | 0.511 | 0.447 | 0.318
22 | NCI-H2009 | 0.574 | 0.6 | 0.645 | 0.642 | 0.71 | 1.14 | 1.04 | 1.09 | 1.07 | 1.02 | 0.638 | 0.665 | 0.587 | 0.321 | 0.351 | 0.327 | 0.358 | 0.373 | 0.297
23 | LOU-NH91 | 0.736 | 0.751 | 0.713 | 0.668 | 0.733 | 0.765 | 0.704 | 0.739 | 0.79 | 0.717 | 0.738 | 0.742 | 0.72 | 0.711 | 0.865 | 0.791 | 0.834 | 0.791 | 0.841
24 | NCI-H2405 | 0.649 | 0.599 | 0.602 | 0.644 | 0.6 | 0.927 | 0.806 | 0.808 | 0.847 | 0.869 | 0.593 | 0.655 | 0.595 | 0.478 | 0.744 | 0.685 | 0.7 | 0.828 | 0.742
25 | LCLC-97TM1 | 0.535 | 0.432 | 0.496 | 0.474 | 0.515 |  | 0.35 |  | 0.424 | 0.325 | 0.566 | 0.616 | 0.422 | 0.21 | 0.217 | 0.29 | 0.198 | 0.25 | 0.204
26 | NCI-H596 | 0.812 | 0.653 | 0.613 | 0.695 | 0.663 | 1.13 | 1.02 | 0.921 | 0.899 | 0.898 | 0.723 | 0.628 | 0.644 | 0.754 | 1.1 | 0.954 | 1.01 | 1.02 | 1.38
27 | NCI-H727 | 0.623 | 0.549 | 0.54 | 0.592 | 0.578 | 1.17 | 0.76 | 0.798 | 0.936 | 0.772 | 0.68 | 0.632 | 0.517 | 0.408 | 0.951 | 0.854 | 0.793 | 0.929 | 0.801
28 | H3255 | 0.544 | 0.633 | 0.595 | 0.567 | 0.655 | 0.842 | 1.02 | 0.834 | 0.669 | 0.874 | 0.572 | 0.517 | 0.591 | 0.508 | 0.652 | 0.635 | 0.58 | 0.655 | 0.585
